Data published in US10681909B2, “Herbicidal triazoles” (FMC Corporation, priority 2014, dated 2020).

Assays:
deadnettle = test: Test D preemergence; type: in vivo, Lamium amplexicaule; settings: for Plant response rating (0 to 100), Deadnettle: 16 g ai/ha, 0 is no effect, 100 is complete control; for Plant response rating: Deadnettle: scale 0 to 100
Text: (§1) Seeds of plant species selected from bluegrass (annual bluegrass, Poa annua), blackgrass (Alopecurus myosuroides), canarygrass (Phalaris minor), chickweed (common chickweed, Stellaria media), galium (catchweed bedstraw, Galium aparine), bromegrass, down (downy bromegrass, Bromus tectorum), Russian thistle (Salsola kali), field poppy (Papaver rhoeas), field violet (Viola arvensis), foxtail, green (green foxtail, Setaria viridis), deadnettle (henbit deadnettle, Lamium amplexicaule), ryegrass, Ital. (Italian ryegrass, Lolium multiflorum), kochia (Kochia scoparia), lambsquarters (Chenopodium album), oilseed rape (Brassica napus), pigweed (Amaranthus retroflexus), chamomile (scentless chamomile, Matricaria inodora), speedwell (bird's-eye speedwell, Veronica persica), barley, spring (spring barley, Hordeum vulgare), wheat, spring (spring wheat, Triticum aestivum), buckwheat, wild (wild buckwheat, Polygonum convolvulus), wild mustard (Sinapis arvensis), oat, wild (wild oat, Avena fatua), radish, wild (wild radish, Raphanus raphanistrum), […]), barley, winter (winter barley, Hordeum vulgare), and wheat, winter (winter wheat, Triticum aestivum) were planted into a silt loam soil and treated preemergence with test chemicals formulated in a non-phytotoxic solvent mixture which included a surfactant. At the same time, these species were planted in pots containing Sunshine Redi-Earth® planting medium comprising spaghnum peat moss, vermiculite, starter nutrients and dolomitic limestone and treated with postemergence applications of the test chemicals formulated in the same manner. Plants ranged in height from 2 to 18 cm (1- to 4-leaf stage). Treated plants and controls were maintained in a controlled growth environment for 14 to 21 d after which time all species were compared to controls and visually evaluated. […] A dash (-) response means no test result.

kochia = test: Test A preemergence; type: in vivo, Kochia scoparia; settings: 0 to 100 scale (0 no effect, 100 complete control)
Method in brief: (§2)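 Visual injury score, 0 (no effect) to 100 (complete control), taken about 10 d after treatment against untreated greenhouse controls. Chemicals formulated in non-phytotoxic solvent plus surfactant; preemergence by directed soil spray onto sown loam/sand, postemergence onto one- to two-leaf plants.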

ragweed = test: Test A postemergence; type: in vivo, Ambrosia elatior; settings: 0 to 100 scale (0 no effect, 100 complete control), approx. 10 d
Method in brief: as §2

chickweed = test: Test D preemergence; type: in vivo, Stellaria media; settings: for Plant response rating (0 to 100), Chickweed: 16 g ai/ha, 0 is no effect, 100 is complete control; for Plant response rating: Chickweed: scale 0 to 100
Text: as §1

velvetleaf = test: Test C preemergence; type: in vivo, Abutilon theophrasti; settings: for Velvetleaf plant response rating (0 to 100): Preemergence, visual rating after 13 to 15 d; for Plant response rating (scale of 0 to 100 where 0 is no effect and 100 is complete control): Velvetleaf, preemergence, 250 g ai/ha
Text: (§3) Seeds of plant species selected from blackgrass (Alopecurus myosuroides), ryegrass, Italian (Italian ryegrass, Lolium multiflorum), wheat (winter wheat, Triticum aestivum), galium (catchweed bedstraw, Galium aparine), corn (Zea mays), crabgrass, large (large crabgrass, Digitaria sanguinalis), foxtail, giant, (giant foxtail, Setaria faberii), johnsongrass (Sorghum halepense), lambsquarters (Chenopodium album), morningglory (Ipomoea coccinea), nutsedge, yellow (yellow nutsedge, Cyperus esculentus), pigweed (Amaranthus retroflexus), ragweed (common ragweed, Ambrosia elatior), soybean (Glycine max), barnyardgrass (Echinochloa crus-galli), oilseed rape (Brassica napus), waterhemp (common waterhemp, Amaranthus rudis), and velvetleaf (Abutilon theophrasti) were planted into a blend of loam soil and sand and treated preemergence with test chemicals formulated in a non-phytotoxic solvent mixture which included a surfactant. At the same time, plants selected from these crop and weed species and also chickweed (common chickweed, Stellaria media), oat, wild (wild oat, Avena fatua), and kochia (Kochia scoparia), were planted in pots containing Sunshine Redi-Earth® planting medium comprising spaghnum peat moss, vermiculite, starter nutrients and dolomitic limestone and treated with postemergence applications of test chemicals formulated in the same manner. Plants ranged in height from 2 to 18 cm (1- to 4-leaf stage) for postemergence treatments. […] A dash (-) response means no test result.

galium = test: Test C preemergence; type: in vivo, Galium aparine; settings: for Plant response rating (scale of 0 to 100 where 0 is no effect and 100 is complete control): Galium, preemergence; for Galium plant response rating (0 to 100): Preemergence, visual rating after 13 to 15 d
Text: as §3

ryegrass, Italian = test: Test A preemergence; type: in vivo, Lolium multiflorum; settings: 0 to 100 scale (0 no effect, 100 complete control)
Method in brief: as §2

| SMILES | Plant response rating (0 to 100), Deadnettle (deadnettle) | Plant response rating: Deadnettle (deadnettle; 31 g ai/ha) | Plant response rating: Deadnettle (deadnettle; 62 g ai/ha) | Plant response rating: Deadnettle (deadnettle; 125 g ai/ha) | Plant response rating, Kochia (kochia; 125 g ai/ha) | Plant response rating, Kochia (kochia; 500 g ai/ha, approx. 10 d) | Plant response rating, Ragweed (ragweed; 125 g ai/ha) | Plant response rating, Ragweed (ragweed; 500 g ai/ha) | Plant response rating (0 to 100), Chickweed (chickweed) | Plant response rating: Chickweed (chickweed; 31 g ai/ha) | Plant response rating: Chickweed (chickweed; 62 g ai/ha) | Plant response rating: Chickweed (chickweed; 125 g ai/ha) | Velvetleaf plant response rating (0 to 100) (velvetleaf; 31 g ai/ha) | Velvetleaf plant response rating (0 to 100) (velvetleaf; 62 g ai/ha) | Plant response rating (scale of 0 to 100 where 0 is no effect and 100 is complete control) (velvetleaf) | Plant response rating (scale of 0 to 100 where 0 is no effect and 100 is complete control) (galium; 125 g ai/ha) | Plant response rating (scale of 0 to 100 where 0 is no effect and 100 is complete control) (galium; 250 g ai/ha) | Galium plant response rating (0 to 100) (galium; 31 g ai/ha) | Galium plant response rating (0 to 100) (galium; 62 g ai/ha) | Plant response rating, Ryegrass, Italian (ryegrass, Italian; 125 g ai/ha) | further results |
| --- | --- | --- | --- | --- | --- | --- | --- | --- | --- | --- | --- | --- | --- | --- | --- | --- | --- | --- | --- | --- | --- |
| CCOc1nc(-c2ccccc2)nn1Cc1ccnc(C(F)(F)F)c1 [Compound 27] | 80 | 100 | 100 | 100 | 100 | 100 | 50 | 70 | 85 | 95 | 100 | 100 | 10 | 70 | 100 | 95 | 95 | 90 | 95 | 90 | Plant response rating, Ryegrass, Italian (ryegrass, Italian; 500 g ai/ha, approx. 10 d): 100 |
| FC(F)(F)COc1nc(-c2ccc(Cl)cc2)nn1Cc1ccnc(C(F)(F)F)c1 [Compound 31] | 80 | 80 | 90 | 100 | 90 | 90 | 70 | 80 | 80 | 90 | 100 | 100 | 35 | 55 | 80 | 30 | 35 | 5 | 30 | 90 | Plant response rating, Ryegrass, Italian (ryegrass, Italian; 500 g ai/ha): 100 |
| Fc1ccc(-c2nc(OCC(F)(F)F)n(Cc3ccnc(C(F)(F)F)c3)n2)cc1 [Compound 30] | 85 | 95 | 100 | 100 | 100 | 100 | 40 | 70 | 70 | 80 | 100 | 100 | 20 | 70 | 85 | 95 | 95 | 60 | 65 | 90 | Plant response rating, Ryegrass, Italian (ryegrass, Italian; 500 g ai/ha, approx. 10 d): 100 |
| FC(F)(F)COc1nc(-c2ccccc2)nn1Cc1ccnc(C(F)(F)F)c1 [Compound 24] | 30 | 80 | 85 | 100 | 80 | 90 | 50 | 70 | 55 | 60 | 70 | 90 | 30 | 45 | 60 | 50 | 90 | 5 | 30 | 70 | Plant response rating, Ryegrass, Italian (ryegrass, Italian; 500 g ai/ha, approx. 10 d): 80 |
